Experimental data reported in patent US20230138984A1, “HA-PACLITAXEL CONJUGATE FOR TREATMENT OF MESOTHELIOMA” (FIDIA FARMACEUTICI S.p.A., priority 2020, published 2023).
Converted amounts (≈) assume the structure as drawn. Like-named read-outs stand apart in the source and are kept apart here.

What was measured:
[1] = tested on: human mesothelioma H2052 cells; settings: for average luminescence of tumor zone: weekly, order of magnitude, compared with untreated 1x10^12 on the 100° day
Text: The cell lines of human mesothelioma H2052 were transduced with a lentiviral vector (method by which the genes can be inserted into cells using the lentivirus) containing a bidirectional promoter allowing the high and coordinated expression of two reporter genes for the synthesis of luciferase and eGFP (enhanced Green Fluorescent Protein), as described in Amendola et al., Nat Biotechnol 2005, 23:108-16: luciferase is an enzyme that catalyzes the oxidation of luciferin which oxidizing emits energy ([…]) in the form of light radiation and such reaction has an ultra-high sensitivity; the eGFP derives from the jellyfish Aequorea victoria, and it is capable of emitting bright green light when exposed to certain wavelengths; both such proteins are used below as a “marker system” for human mesothelioma cells H2052 transduced as above, in order to identify the tumor mass that is formed in animals injected with such cells and to determine its dimensions and the growth over time through suitable bioluminescence sensor.
Cells were incubated for 6 hours in a mixture of complete medium (RPMI + 10% FBS, 1% HEPES, L-glutamine and penicillin/streptomycin) containing the above-mentioned vector and protamine sulphate. At the end of 6 hours of incubation, supernatants were re-integrated with complete medium. After 5 days, the effect of the transduction was evaluated through flow cytometry.
Cells were then expanded and sub-divided in order to isolate the population with the higher expression of reporter genes.
All treated animals were monitored through detection of bioluminescence emitted by their tumor zone treated with HA-paclitaxel conjugate, in order to assess over time, the dimension (and therefore the growth) of the tumor with reference to animals untreated with any chemotherapeutic agent and to those treated with non-conjugated paclitaxel.

H28 cells = assay: MTT cytotoxicity assay on mesothelioma cell line H28; settings: Homo sapiens, NCI-H28, 48 h, read-out: Normalized IC50
H2452 cells = assay: MTT cytotoxicity assay on mesothelioma cell line H2452; settings: Homo sapiens, NCI-H2452, 48 h, read-out: Normalized IC50
H2052 cells = assay: MTT cytotoxicity assay on mesothelioma cell line H2052; settings: Homo sapiens, NCI-H2052, 48 h, read-out: Normalized IC50

In the case of `CC(=O)O[C@H]1C(=O)[C@@]2(C)[C@H]([C@H](OC(=O)c3ccccc3)[C@]3(O)C[C@H](OC(=O)[C@H](O)[C@@H](NC(=O)c4ccccc4)c4ccccc4)C(C)=C1C3(C)C)[C@]1(OC(C)=O)CO[C@@H]1C[C@@H]2O` [paclitaxel], the “average luminescence of tumor zone” value ([1]; 2° sample: 10 mg/Kg iv for 3 treatments then ip) is reported as ~1x10^11 Ph/sec, the “average luminescence of tumor zone” value ([1]; 3° sample: 10 mg/Kg ip) is reported as ~1x10^11 Ph/sec and the “bioluminescence emitted by treated tumor zone” value ([1]; non-conjugated paclitaxel 10 mg/Kg, after 139 days of observation (FIG. 2)) is reported as “around 12x10^11 Ph/sec”. For the same molecule, the IC50 (H28 cells) was 0.787 µg/mL (≈ 0.922 µM), the IC50 (H2452 cells) was 0.8 µg/mL (≈ 0.937 µM) and the IC50 (H2052 cells) was 0.225 µg/mL (≈ 0.263 µM).
